{
  "source": "patent US20060148732A1",
  "about": "“Inhibition of NF-kappaB by triterpene compositions” (priority 2000, published 2006)",
  "key": {"SKH-1 hairless mice": {"system": "SKH-1 hairless mice", "test": "UVB-induced skin lesions", "type": "in vivo, mouse", "conditions": "UVB-irradiated SKH-1 mice; topical, 15 min before UVB", "experimental": "In the study, SKH-1 hairless mice are irradiated with UVB radiation at the dose of 1.8 kJ/m^2 for up to 15 min. Mice are pretreated with two different doses of F035 of (2 mg and 4 mg per dose) as well as negative controls (F060 or acetone alone). It is believed a minimum of 10 mice per group are needed to obtain statistically meaningful results. […] The studies are conducted for a short period of time to evaluate the preventive effect of the compounds. It is not expected to see visible tumors, even with UVB alone, only skin lesions within the specified time-frame. A slight erythema (minor redness of the skin) may be observed, which should disappear the next day after irradiation.\nThe UV apparatus used has eight Westinghouse FS40 sunlamps, an IL-1400A radiometer/photometer, and an attached IL-1403 UVB phototherapy radiometer with a SEL 240/UVB-1/TD detector. The middle part has several chambers, each holding an individual mouse. There are holes inside the chambers for proper ventilation while mice are being irradiated. The chambers rotate in circular motion during irradiation so each mouse is exposed to UVB light uniformly. […] The amount of the UVB exposure will be measured with a UVB radiometer. […]\nMethods. […] The relative efficacy of the treatment was evaluated utilizing endpoints of epidermal thickness, leukocyte invasion, labeling (with BrdU) index, p53 mutations and 8-OH-dG formation. […]"}, "PARP in Jurkat cells": {"system": "PARP in Jurkat cells", "test": "Immunoblot analysis of PARP degradation", "type": "cell-based, human", "experimental": "Apoptosis induced by F035 & D1 was examined by proteolytic cleavage of poly (ADP-ribose) polymerase (PARP). Jurkat cells (2×10^6/ml) were treated with F035 (2 μg/ml) and D1 (2 μg/ml) for different lengths of time. Cell lysates were prepared in buffer containing 20 mM HEPES, 250 mM NaCl, 2 mM EDTA, 0.1% NP-40, 2 μg/ml leupeptin, 2 μg/ml aprotinin, 0.5 μg/ml benzamidine, 1 mM DTT and 1 mM PMSF. Cellular proteins (60 μg/ml) were separated on a 7.5% SDS polyacrylamide gel and electrotransferred onto a nitrocellulose membrane. The membrane was probed first with monclonal anti-PARP antibody (PharMingen) and then with anti-mouse antibody conjugated to horse radish peroxidase (HRPO). Protein bands were detected by chemiluminescense (ECL, Amersham). The extent of cleavage of the 116-kDa PARP into 85-kDa and 41-kDa peptide products was used as a measure of apoptosis (Tewari et al., 1995).\nImmunoblot Analysis of PARP Degradation. Induction of apoptosis was also examined by proteolytic cleavage of PARP (Nicholson and Thornberry, 1997). Jurkat cells (3×10^6) were treated with 2 μg/ml of F094, avicin D, or avicin G at 37° C. Cell lysates were prepared in a buffer containing 20 mM HEPES, 250 mM NaCl, 2 mM EDTA, 0.1% NP-40, 2 μg/ml leupeptin, 2 μg/ml aprotinin, 0.5 μg/ml benzamidine, 1 mM DTT, and 1 mM PMSF. Cellular proteins (60 μg/ml) were separated on a 7.5% SDS polyacrylamide gel and electrotransferred onto a nitrocellulose membrane. The membrane was probed first with monoclonal anti-PARP antibody (Pharmingen) and then with anti-mouse antibody conjugated to horseradish peroxidase (HRPO). Protein bands were detected by chemiluminescence (ECL). The appearance of an 85 kDa cleavage product was used as a measure of apoptosis."}, "[1]": {"system": "mitochondrial fraction of Jurkat cells", "test": "Cytochrome c release in a cell free system", "type": "biochemical, human", "conditions": "isolated mitochondria; 25 μM pretreatment", "experimental": "Isolation of the Submitochondrial Fraction. Jurkat cells (1.5-2.0×10^7) were suspended in 1 ml sucrose buffer (250 mM sucrose in 30 mM Tris-HCl pH 7.4) and transferred into an N2 cavitation chamber (PARR Instruments Company, Moline, Ill.). The cells were subjected to N2 cavitation (300 psi for 5 min) as per the manufacturer's instructions. Under these conditions most of the cell membrane was disrupted with no change in the mitochondrial respiratory activity. Next, DNA and the nuclear fraction were removed by centrifugation (1500 g, 30 sec). The supernatant was further centrifuged (16000 g, 10 min) and the pellet was used as the submitochondrial fraction.\nTo observe if monoterpene/triterpenoid saponins directly affected mitochondria to induce apoptosis, experiments were carried out using avicin G in a cell free system. Mitochondria were isolated from Jurkat cells by the N2 cavitation method."}},
  "data": [
    {"substance": "Vitamin E", "values": [
      {"measurement": "decrease in number of cycling cells (BrdU labeling)", "setting": "SKH-1 hairless mice", "result": 30, "unit": "%"}
    ]},
    {"substance": "z-Val-Ala-Asp-CH2F [z-vad fmk, reference compound]", "values": [
      {"measurement": "effect on cleavage of PARP induced by F094 or avicins", "setting": "PARP in Jurkat cells; 100 μM pretreatment 1 hour", "result": "totally blocked the cleavage of PARP"},
      {"measurement": "effect on F035 induced cleavage of PARP", "setting": "PARP in Jurkat cells; 100 μM pretreatment for 1 h", "result": "completely reversed"},
      {"measurement": "effect on avicin G induced cytochrome c release", "setting": "[1]", "result": "did not affect the release of cytochrome c"}
    ]}
  ]
}
